Reference: the supplement of paper PMC10307832

Tests used:
Experiment in all cases: relative viability (nuclei count vs DMSO), 5 days (fraction); higher = more cells survive
[1] = test system: NCI-H2009
Procedure, shortened: (§1)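 The day after seeding in 1536-well plates, lung cancer cell lines were treated by pin tool with a single drug, or with a fixed anchor-drug dose together with five library-drug doses (not always all listed) in √10 steps. After 5 days, a combined fix-and-stain solution (final 0.05% Triton X-100, 1% formaldehyde, 1 ug/ml Hoechst) was added. Nuclei counted on 4× images gave relative viability as treated counts over vehicle counts, reported as the median of duplicate plates.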

[2] = test system: EPLC-272H
Procedure, shortened: as §1

[3] = test system: NCI-H1993
Procedure, shortened: as §1

[4] = test system: PC-14
Procedure, shortened: as §1

[5] = test system: NCI-H661
Procedure, shortened: as §1

[6] = test system: HOP-62
Procedure, shortened: as §1

[7] = test system: LXF-289
Procedure, shortened: as §1

[8] = test system: NCI-H727
Procedure, shortened: as §1

[9] = test system: NCI-H1734
Procedure, shortened: as §1

[10] = test system: EMC-BAC-2
Procedure, shortened: as §1

[11] = test system: NCI-H2085
Procedure, shortened: as §1

`CC(=O)O[C@@]12CO[C@@H]1C[C@H](O)[C@@]1(C)C(=O)[C@H](O)C3=C(C)[C@@H](OC(=O)[C@H](O)[C@@H](NC(=O)OC(C)(C)C)c4ccccc4)C[C@@](O)([C@@H](OC(=O)c4ccccc4)[C@H]21)C3(C)C` [Docetaxel] + CC(=O)Nc1cccc(-n2c(=O)n(C3CC3)c(=O)c3c(Nc4ccc(I)cc4F)n(C)c(=O)c(C)c32)c1 [Trametinib] (partner 0.02 µM) gave a relative viability ([1]; first compound 0.002 µM) of 0.295, a relative viability ([1]; first compound 0.006325 µM) of 0.233 and a relative viability ([1]; first compound 0.02 µM) of 0.175. It also gave a relative viability ([2]; first compound 0.0002 µM) of 0.32, a relative viability ([2]; first compound 0.000632 µM) of 0.276 and a relative viability ([2]; first compound 0.006325 µM) of 0.136. For the same compound, the relative viability ([2]; first compound 0.02 µM) was 0.0951, the relative viability ([3]; first compound 0.0002 µM) was 0.504 and the relative viability ([3]; first compound 0.000632 µM) was 0.578. For the same compound, the relative viability ([3]; first compound 0.002 µM) was 0.546, the relative viability ([3]; first compound 0.006325 µM) was 0.481 and the relative viability ([3]; first compound 0.02 µM) was 0.3. The relative viability ([4]; first compound 0.0002 µM) was 0.648, the relative viability ([4]; first compound 0.000632 µM) was 0.679 and the relative viability ([4]; first compound 0.002 µM) was 0.0905. It also gave a relative viability ([4]; first compound 0.006325 µM) of 0.0687, a relative viability ([4]; first compound 0.02 µM) of 0.0257 and a relative viability ([5]; first compound 0.0002 µM) of 0.53. For the same compound, the relative viability ([5]; first compound 0.000632 µM) was 0.611, the relative viability ([5]; first compound 0.002 µM) was 0.568 and the relative viability ([5]; first compound 0.006325 µM) was 0.371. The relative viability ([5]; first compound 0.02 µM) was 0.347, the relative viability ([6]; first compound 0.0002 µM) was 0.328 and the relative viability ([6]; first compound 0.000632 µM) was 0.446. For the same compound, the relative viability ([6]; first compound 0.002 µM) was 0.355, the relative viability ([6]; first compound 0.006325 µM) was 0.32 and the relative viability ([7]; first compound 0.0002 µM) was 0.648. It also gave a relative viability ([7]; first compound 0.000632 µM) of 0.673, a relative viability ([7]; first compound 0.002 µM) of 0.335 and a relative viability ([7]; first compound 0.006325 µM) of 0.18. It also gave a relative viability ([7]; first compound 0.02 µM) of 0.109, a relative viability ([8]; first compound 0.0002 µM) of 0.398 and a relative viability ([8]; first compound 0.000632 µM) of 0.379. For the same compound, the relative viability ([8]; first compound 0.002 µM) was 0.402, the relative viability ([8]; first compound 0.006325 µM) was 0.386 and the relative viability ([8]; first compound 0.02 µM) was 0.339. The relative viability ([9]; first compound 0.0002 µM) was 0.615, the relative viability ([9]; first compound 0.000632 µM) was 0.54 and the relative viability ([9]; first compound 0.002 µM) was 0.351. It also gave a relative viability ([9]; first compound 0.006325 µM) of 0.337, a relative viability ([9]; first compound 0.02 µM) of 0.198 and a relative viability ([10]; first compound 0.0002 µM) of 0.874. For the same compound, the relative viability ([10]; first compound 0.000632 µM) was 0.76, the relative viability ([10]; first compound 0.002 µM) was 0.554 and the relative viability ([10]; first compound 0.006325 µM) was 0.476. The relative viability ([10]; first compound 0.02 µM) was 0.385, the relative viability ([11]; first compound 0.0002 µM) was 0.503 and the relative viability ([11]; first compound 0.000632 µM) was 0.513. The relative viability ([11]; first compound 0.002 µM) was 0.324, the relative viability ([11]; first compound 0.006325 µM) was 0.329 and the relative viability ([11]; first compound 0.02 µM) was 0.199.
